According to article PMC3345137 (Toxicology and Applied Pharmacology, 2011):

Columns and labels:
butyrylcholinesterase = conditions: purified butyrylcholinesterase; ref Shenouda et al., 2009; cited from earlier work
Rat hydrolase A = target: T1, Rat hydrolase A (Rattus norvegicus, UniProt P16303); type: biochemical
T1 sequence (P16303 19-565): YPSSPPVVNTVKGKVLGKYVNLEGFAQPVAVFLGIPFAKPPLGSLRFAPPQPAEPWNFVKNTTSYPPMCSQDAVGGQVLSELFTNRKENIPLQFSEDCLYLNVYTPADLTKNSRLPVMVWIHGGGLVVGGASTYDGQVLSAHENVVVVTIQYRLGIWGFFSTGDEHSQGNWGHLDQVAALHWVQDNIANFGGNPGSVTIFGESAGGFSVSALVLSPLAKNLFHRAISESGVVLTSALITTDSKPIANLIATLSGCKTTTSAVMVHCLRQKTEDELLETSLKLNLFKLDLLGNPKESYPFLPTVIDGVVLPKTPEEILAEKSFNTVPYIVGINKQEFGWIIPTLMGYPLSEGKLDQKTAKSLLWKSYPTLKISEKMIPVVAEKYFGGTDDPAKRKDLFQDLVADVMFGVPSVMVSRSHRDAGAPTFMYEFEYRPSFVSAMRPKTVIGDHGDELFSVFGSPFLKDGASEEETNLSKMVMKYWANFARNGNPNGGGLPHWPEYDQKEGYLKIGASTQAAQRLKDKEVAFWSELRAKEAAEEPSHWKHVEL

[1] = tested on: recombinant human acetylcholinesterase; conditions: experimental, ref Amitai et al., 1998; cited from earlier work
[2] = target: porcine liver carboxylesterase; conditions: 25°C, ref Quistad and Casida, 2000; cited from earlier work
[3] = tested on: recombinant human butyrylcholinesterase; conditions: experimental, ref Amitai et al., 1998; cited from earlier work
[4] = target: T2, Human recombinant CES2 (Carboxylesterase 2) (Homo sapiens, UniProt O00748); type: biochemical
T2 sequence (O00748 27-559): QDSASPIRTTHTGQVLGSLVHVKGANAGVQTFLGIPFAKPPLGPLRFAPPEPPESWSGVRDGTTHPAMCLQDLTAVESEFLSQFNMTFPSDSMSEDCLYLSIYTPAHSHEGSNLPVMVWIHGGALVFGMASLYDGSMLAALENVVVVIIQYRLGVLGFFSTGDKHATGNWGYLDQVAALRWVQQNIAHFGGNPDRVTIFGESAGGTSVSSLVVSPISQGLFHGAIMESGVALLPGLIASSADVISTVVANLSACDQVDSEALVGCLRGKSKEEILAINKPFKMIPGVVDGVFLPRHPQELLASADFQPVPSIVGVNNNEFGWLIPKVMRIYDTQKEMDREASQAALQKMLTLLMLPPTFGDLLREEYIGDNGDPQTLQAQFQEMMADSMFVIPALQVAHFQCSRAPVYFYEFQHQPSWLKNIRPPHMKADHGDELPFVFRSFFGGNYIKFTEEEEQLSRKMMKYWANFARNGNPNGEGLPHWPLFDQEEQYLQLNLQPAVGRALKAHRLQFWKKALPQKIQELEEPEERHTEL

[5] = target: T3, Human recombinant MGL (Monoacylglycerol lipase) (Homo sapiens, UniProt Q99685); type: biochemical; conditions: Michaelis constant of substrate pNPV with MGL, no inhibitor
T3 sequence (Q99685 1-303): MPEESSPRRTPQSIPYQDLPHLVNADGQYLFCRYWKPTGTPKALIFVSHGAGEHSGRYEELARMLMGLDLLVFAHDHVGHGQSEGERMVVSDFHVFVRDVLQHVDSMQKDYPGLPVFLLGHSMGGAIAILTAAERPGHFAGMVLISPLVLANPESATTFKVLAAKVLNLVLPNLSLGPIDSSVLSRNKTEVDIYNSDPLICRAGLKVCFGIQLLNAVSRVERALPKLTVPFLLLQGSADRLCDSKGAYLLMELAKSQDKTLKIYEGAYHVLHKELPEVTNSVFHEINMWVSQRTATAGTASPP

[6] = target: T4, Human recombinant CES1 (Carboxylesterase 1) (Homo sapiens, UniProt P23141); type: biochemical; conditions: Michaelis constant of substrate pNPV with CES1, no inhibitor
T4 sequence (P23141 18-567): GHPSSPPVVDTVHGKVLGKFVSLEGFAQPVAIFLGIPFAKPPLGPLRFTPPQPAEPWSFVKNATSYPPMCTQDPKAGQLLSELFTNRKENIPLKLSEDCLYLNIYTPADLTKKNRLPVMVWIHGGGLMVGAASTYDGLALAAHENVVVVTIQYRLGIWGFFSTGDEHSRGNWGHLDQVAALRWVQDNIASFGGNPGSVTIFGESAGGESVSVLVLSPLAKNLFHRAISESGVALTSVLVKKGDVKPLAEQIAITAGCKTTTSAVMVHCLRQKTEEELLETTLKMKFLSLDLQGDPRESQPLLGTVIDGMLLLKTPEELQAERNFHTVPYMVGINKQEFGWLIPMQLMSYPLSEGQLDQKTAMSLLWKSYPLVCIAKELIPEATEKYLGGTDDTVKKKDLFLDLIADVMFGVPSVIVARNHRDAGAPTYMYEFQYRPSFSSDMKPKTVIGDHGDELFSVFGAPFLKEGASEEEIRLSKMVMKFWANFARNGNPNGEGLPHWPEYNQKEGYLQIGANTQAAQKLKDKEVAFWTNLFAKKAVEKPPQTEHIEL

Row | SMILES | bimolecular rate constant (butyrylcholinesterase) [M⁻¹ s⁻¹] | bimolecular rate constant (Rat hydrolase A; rat hydrolase A purified from rat liver) [M⁻¹ s⁻¹] | bimolecular rate constant [1] [M⁻¹ s⁻¹] | IC50 [2] [nM] | bimolecular rate constant [3] [M⁻¹ s⁻¹] | true bimolecular rate constant ([4]; CES2, single representative experiment, calculated with Equation (4)) [M⁻¹ s⁻¹] | apparent bimolecular rate constant (ki’= kinact/KI’) ([4]; CES2, single representative experiment, pNPV 500 µM, 37°C) [M⁻¹ s⁻¹] | Km ([4]; Michaelis constant of substrate pNPV with CES2, no inhibitor) [µM] | Km (Rat hydrolase A; Michaelis constant of substrate pNPV with rat hydrolase A, no inhibitor) [µM] | Km [5] [µM] | Km [6] [µM]
1 | CCOP(=O)(OCC)Oc1nc(Cl)c(Cl)cc1Cl [Chlorpyrifos Oxon, Chlorpyrifos oxon] | 8.47e+08 | 3.3e+06 | 167000 | 2 | 2.78e+07 |  |  |  |  |  | 
2 | CCOP(=O)(OCC)Oc1ccc([N+](=O)[O-])cc1 [Paraoxon] |  |  |  | 3 |  | 29000 | 4400 |  |  |  | 
3 | CCCCC(=O)Oc1ccc([N+](=O)[O-])cc1 [pNPV, para-Nitrophenyl valerate] |  |  |  |  |  |  |  | 90 ± 12 | 32.6 | 158 ± 37 | 136 ± 40
